Results published in patent US20250257086A1, “EGFR DEGRADATION AGENT” (Beijing Tide Pharmaceutical Co., Ltd., priority 2022, published 2025).
Where two headings read alike, the source gives them in different places.

How the values were obtained:
Format in all cases: cell-based
[1] = system: H1975 (EGFR^L858R/T790M) cells; experiment: Antiproliferative activity on H1975 (EGFR L858R/T790M) cells (CTG); details: Homo sapiens, read-out: IC50 (nM), antiproliferative activity
Method: 30 nL of the compound dilution was added to a 384-well plate by Echo (Labcyte, Echo550).
The percent inhibition rate (% inhibition) was calculated by the following formula
[formula] • LUMcmpd: Luminescence value of assay compound. • LUMpositive: Average LUM value of positive drug with a concentration of 10 μM. • LUMvehicle: Average LUM value of negative control group without drug treatment.
The nonlinear regression curve (dose response-variable slope) between the value of inhibition rate (%) and the logarithm of compound concentration was fitted with graphpad prism 8.0, the effect dose curve of compound was drawn, and the IC50 value was calculated.
Y=Bottom+(Top−Bottom)/(1+10^((Log IC50−X)*HillSlope)) • X-axis: logarithm of compound concentration; Y axis: inhibition rate (inhibition).

[2] = target: Ba/F3 (EGFR^L858R/T790M/C797S) cells (Homo sapiens, UniProt P00533, T790M/C797S/L858R, cells depend on it); experiment: Antiproliferative activity on Ba/F3 (EGFR L858R/T790M/C797S) cells (CTG)
Outline: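 Luminescent CellTiter-Glo read-out on Ba/F3 cells carrying EGFR L858R/T790M/C797S. Inhibition normalised between untreated vehicle and a 10 μM positive drug. IC50 taken from a variable-slope four-parameter fit of inhibition against log compound concentration.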

[3] = target: T1, EGFR^L858R/T790M/C797S protein (Homo sapiens, UniProt P00533, C797S/L858R/T790M); experiment: Induction of EGFR L858R/T790M/C797S protein degradation in Ba/F3 cells (Alpha counts); details: 24h treatment; for degradation effect on EGFR^L858R/T790M/C797S protein (in words): FIG. 1 and 2; for DC50: range 1 nM to 1000 nM, FIG. 1 and 2, read-out: DC50, reduction of EGFR^L858R/T790M/C797S protein level
T1 construct: expressed in transfected cells; host or cells: Ba/F3 (EGFR^L858R/T790M/C797S) cells
Method: (§1) Ba/F3 (EGFR^L858R/T790M/C797S) and Ba/F3 (EGFR^Del19/T790M/C797S) cells were cultured according to the culture conditions recommended by ATCC, and analyzed by index.
(§2) Culture conditions: incubated at 37° C., 95% air, 5% CO2 incubator.
(§3) (2) Compound Stock Solution: 10 mM Stock Solution in DMSO, Stored at −20° C.
(§4) The cells in the cell culture bottle were collected, and the cells with viability of >90% can be used in the assay. Cells were seeded in a 96-well plate with 40 μL cells, 1*10^5 cells/well.
(§5) The compounds were serially diluted 3× with DMSO, with the starting concentrations of the compounds being 1.0 mM (EGFR^L858R/T790M/C797S assay) and 10 mM (EGFR^Del19/T790M/C797S assay), respectively, into 10 concentrations to prepare working solutions.
(§6) (5) Compound was Pipetted into the 96-Well Plate to Treat Cells in a 37° C., 95% Air, 5% CO2 Incubator for 24h.
(§7) • 1) 1 μg/mL EGF stimulated cells for 10 min; • 2) After the compound treatment was completed, lysis buffer was added to lyse cells; 10 μL of cell lysate was transferred to the 384-well plate; in addition, control lysate, negative control and 5 μL of acceptor mix were added to the 384-well plate; The plate was shaken on a shaker for 1-2 min; • 3) 5 μL of donor mix was added to each well; the 384-well plate was sealed, shaken on a shaker for 1-2 min, and left in the dark at room temperature overnight; then the plate was read with ELISA reader.
(§8) Alpha counts were fitted by logarithmic treatment of compound concentration with Graphpad Prism 8.0.
(§9) [formula] • X: logarithm of compound concentration; Y: Alpha Counts.

[4] = target: T2, EGFR^Del19/T790M/C797S protein (Homo sapiens, UniProt P00533, C797S/DEL746-750/T790M); experiment: Induction of EGFR Del19/T790M/C797S protein degradation in Ba/F3 cells (Alpha counts); details: 24h treatment; for degradation effect on EGFR^Del19/T790M/C797S protein (in words): FIG. 3; for DC50: range 1 nM to 10000 nM, FIG. 3, read-out: DC50, reduction of EGFR^Del19/T790M/C797S protein level
T2 construct: expressed in transfected cells; host or cells: Ba/F3 (EGFR^Del19/T790M/C797S) cells
Method: as §1, §2, §3, §4, §5, §6, §7, §8, §9

[5] = NCI-H1975, H1975 (EGFR^L858R/T790M) cells, 72h incubation, CTG luminescence
[6] = 72h incubation, CTG luminescence, read-out: IC50 (nM), antiproliferative activity

T2 sequence (P00533 with tags, fused parts or gaps DEL746-750/T790M/C797S): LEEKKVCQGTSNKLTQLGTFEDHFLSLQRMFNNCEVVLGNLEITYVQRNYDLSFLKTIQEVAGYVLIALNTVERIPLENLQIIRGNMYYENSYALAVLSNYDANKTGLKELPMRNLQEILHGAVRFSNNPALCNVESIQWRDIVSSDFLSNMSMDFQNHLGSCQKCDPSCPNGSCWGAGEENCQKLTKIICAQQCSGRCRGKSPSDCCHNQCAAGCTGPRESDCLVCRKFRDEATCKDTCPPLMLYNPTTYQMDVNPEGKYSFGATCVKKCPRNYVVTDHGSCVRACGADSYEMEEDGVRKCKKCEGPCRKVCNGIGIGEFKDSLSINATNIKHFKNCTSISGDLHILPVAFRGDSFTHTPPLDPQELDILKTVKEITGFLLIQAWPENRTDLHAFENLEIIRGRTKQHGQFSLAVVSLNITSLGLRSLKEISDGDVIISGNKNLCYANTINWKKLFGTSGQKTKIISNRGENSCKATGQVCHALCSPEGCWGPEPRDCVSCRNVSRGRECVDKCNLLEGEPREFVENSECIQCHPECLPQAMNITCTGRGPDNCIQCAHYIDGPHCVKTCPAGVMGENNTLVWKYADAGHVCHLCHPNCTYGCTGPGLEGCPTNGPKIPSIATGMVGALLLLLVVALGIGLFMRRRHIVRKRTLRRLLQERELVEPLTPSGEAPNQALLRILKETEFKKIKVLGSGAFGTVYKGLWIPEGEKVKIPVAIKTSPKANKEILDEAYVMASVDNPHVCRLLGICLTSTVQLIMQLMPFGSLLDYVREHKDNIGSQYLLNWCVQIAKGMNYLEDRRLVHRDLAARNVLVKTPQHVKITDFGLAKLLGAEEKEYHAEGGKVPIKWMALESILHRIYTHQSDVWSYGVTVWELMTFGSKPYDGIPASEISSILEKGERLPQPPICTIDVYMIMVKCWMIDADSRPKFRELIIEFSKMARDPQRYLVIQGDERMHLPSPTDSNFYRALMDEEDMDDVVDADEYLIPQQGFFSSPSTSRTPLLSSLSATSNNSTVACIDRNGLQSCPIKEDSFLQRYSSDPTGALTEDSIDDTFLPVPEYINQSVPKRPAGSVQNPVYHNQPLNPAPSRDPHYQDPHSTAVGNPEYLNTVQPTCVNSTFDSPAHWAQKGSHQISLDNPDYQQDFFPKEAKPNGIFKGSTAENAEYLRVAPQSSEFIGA
Ba/F3 (EGFR^L858R/T790M/C797S) cells, sequence (P00533 whole entry T790M/C797S/L858R): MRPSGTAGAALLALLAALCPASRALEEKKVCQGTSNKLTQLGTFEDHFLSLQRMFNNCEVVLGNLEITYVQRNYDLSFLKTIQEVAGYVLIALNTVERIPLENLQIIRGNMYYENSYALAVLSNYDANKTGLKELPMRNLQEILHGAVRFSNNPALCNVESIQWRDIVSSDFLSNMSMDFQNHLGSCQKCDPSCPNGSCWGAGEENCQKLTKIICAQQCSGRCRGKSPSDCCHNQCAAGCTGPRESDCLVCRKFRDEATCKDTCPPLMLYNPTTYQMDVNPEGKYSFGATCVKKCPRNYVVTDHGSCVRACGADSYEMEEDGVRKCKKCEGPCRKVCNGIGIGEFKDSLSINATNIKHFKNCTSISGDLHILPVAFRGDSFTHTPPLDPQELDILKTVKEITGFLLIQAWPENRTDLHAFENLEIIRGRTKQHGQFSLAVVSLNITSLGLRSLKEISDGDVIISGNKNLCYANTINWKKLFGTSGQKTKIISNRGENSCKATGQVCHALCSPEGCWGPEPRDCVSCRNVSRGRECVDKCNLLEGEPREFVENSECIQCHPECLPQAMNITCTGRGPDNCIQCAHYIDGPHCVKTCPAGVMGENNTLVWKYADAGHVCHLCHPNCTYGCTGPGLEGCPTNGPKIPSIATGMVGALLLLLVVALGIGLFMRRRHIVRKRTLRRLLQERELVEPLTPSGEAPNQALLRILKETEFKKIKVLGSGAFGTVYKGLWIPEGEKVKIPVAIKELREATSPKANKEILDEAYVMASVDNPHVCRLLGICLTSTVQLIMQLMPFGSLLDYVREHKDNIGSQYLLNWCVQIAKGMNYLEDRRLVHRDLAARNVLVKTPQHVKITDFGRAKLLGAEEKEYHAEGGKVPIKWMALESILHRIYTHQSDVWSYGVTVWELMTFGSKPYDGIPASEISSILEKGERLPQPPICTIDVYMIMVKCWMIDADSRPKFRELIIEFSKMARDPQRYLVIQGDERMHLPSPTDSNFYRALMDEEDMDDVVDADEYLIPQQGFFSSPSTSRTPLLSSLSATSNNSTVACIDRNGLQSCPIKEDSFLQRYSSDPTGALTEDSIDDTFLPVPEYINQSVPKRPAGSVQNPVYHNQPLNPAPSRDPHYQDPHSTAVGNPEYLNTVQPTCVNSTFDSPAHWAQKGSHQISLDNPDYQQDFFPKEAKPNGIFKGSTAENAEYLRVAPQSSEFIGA
T1 sequence (P00533 25-1210 T790M/C797S/L858R): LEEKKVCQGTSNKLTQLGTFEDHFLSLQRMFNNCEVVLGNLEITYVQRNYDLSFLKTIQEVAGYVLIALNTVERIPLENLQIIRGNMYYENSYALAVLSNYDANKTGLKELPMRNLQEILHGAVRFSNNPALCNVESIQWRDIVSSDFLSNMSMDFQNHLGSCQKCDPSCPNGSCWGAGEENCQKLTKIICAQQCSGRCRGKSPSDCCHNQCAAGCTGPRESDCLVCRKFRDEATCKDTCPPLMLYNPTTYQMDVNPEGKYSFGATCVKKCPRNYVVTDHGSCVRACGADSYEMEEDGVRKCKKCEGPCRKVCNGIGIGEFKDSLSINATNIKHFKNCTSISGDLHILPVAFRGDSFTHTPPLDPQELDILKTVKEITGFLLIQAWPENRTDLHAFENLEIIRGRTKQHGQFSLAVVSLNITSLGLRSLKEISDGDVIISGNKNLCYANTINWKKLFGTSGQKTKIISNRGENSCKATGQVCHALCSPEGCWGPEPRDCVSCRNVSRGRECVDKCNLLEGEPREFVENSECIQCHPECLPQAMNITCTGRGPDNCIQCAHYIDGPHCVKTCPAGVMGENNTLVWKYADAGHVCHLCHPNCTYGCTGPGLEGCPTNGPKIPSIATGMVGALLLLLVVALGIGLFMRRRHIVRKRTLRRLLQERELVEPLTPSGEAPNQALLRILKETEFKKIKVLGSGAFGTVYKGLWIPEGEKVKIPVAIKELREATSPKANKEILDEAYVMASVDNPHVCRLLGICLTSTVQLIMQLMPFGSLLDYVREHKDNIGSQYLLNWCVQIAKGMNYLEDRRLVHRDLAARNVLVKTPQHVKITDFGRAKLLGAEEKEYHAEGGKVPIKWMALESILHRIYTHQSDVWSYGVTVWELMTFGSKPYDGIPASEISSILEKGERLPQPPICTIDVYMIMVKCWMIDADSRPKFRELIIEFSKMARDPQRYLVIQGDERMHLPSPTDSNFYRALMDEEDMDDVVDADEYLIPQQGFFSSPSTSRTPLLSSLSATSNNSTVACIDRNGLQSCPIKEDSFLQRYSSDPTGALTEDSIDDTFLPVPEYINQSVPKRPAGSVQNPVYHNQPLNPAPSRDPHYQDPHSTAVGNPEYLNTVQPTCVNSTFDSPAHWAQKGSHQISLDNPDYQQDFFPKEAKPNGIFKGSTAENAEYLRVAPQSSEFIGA

SMILES	IC50 [1, 5] [nM]	GI50 [2, 6] [nM]	degradation effect on EGFR^L858R/T790M/C797S protein (in words) [3]	further results
C=CC(=O)Nc1cc(Nc2ncc(Br)c(Nc3ccccc3P(C)(C)=O)n2)c(OC)cc1N1CCC(N2CCN(CCCC#Cc3cccc4c3CN(C3CCC(=O)NC3=O)C4=O)CC2)CC1 (centres unmarked) [Compound D478, N-(5-((5-bromo-4-((2-(dimethylphosphoryl)phenyl)amino)pyrimidin-2-yl)amino)-2-(4-(4-(5-(2-(2,6-dioxopiperidin-3-yl)-1-oxoisoindolin-4-yl)pent-4-yn-1-yl)piperazin-1-yl)piperidin-1-yl)-4-methoxyphenyl)acrylamide]	17.6	30.3		
COc1cc(N2CCC(N3CCN(CCCC#Cc4cccc5c4CN(C4CCC(=O)NC4=O)C5=O)CC3)CC2)ccc1Nc1ncc(Cl)c(Nc2ccccc2P(C)(C)=O)n1 (centres unmarked) [Comparative compound C126]	1390			
C=C(F)C(=O)Nc1cc(Nc2ncc(Cl)c(Nc3ccccc3P(C)(C)=O)n2)c(OC)cc1N1CCC(N2CCN(C)CC2)CC1 [Comparative compound L527, reference compound]		458	no degradation effect	
C=CC(=O)Nc1cc(Nc2nccc(-c3cn(C)c4ccccc34)n2)c(OC)cc1N(C)CCN(C)C [Osimertinib]				IC50 ([1]; NCI-H1975, 72 h): 10.7 nM
COc1cc(N2CCC(N3CCN(C)CC3)CC2)ccc1Nc1ncc(Cl)c(Nc2ccccc2P(C)(C)=O)n1 [Brigatinib, reference compound]	747		no degradation effect	GI50 ([2]; read-out: IC50 (nM), antiproliferative activity, 72h incubation, CTG luminescence): 355 nM
C=C(F)C(=O)Nc1cc(Nc2ncc(Br)c(Nc3ccccc3P(C)(C)=O)n2)c(OC)cc1N1CCC(N2CCN(CCCC#Cc3cccc4c3CN(C3CCC(=O)NC3=O)C4=O)CC2)CC1 (centres unmarked) [Compound D078, N-(5-((5-bromo-4-((2-(dimethylphosphoryl)phenyl)amino)pyrimidin-2-yl)amino)-2-(4-(4-(5-(2-(2,6-dioxopiperidin-3-yl)-1-oxoisoindolin-4-yl)pent-4-yn-1-yl)piperazin-1-yl)piperidin-1-yl)-4-methoxyphenyl)-2-fluoroacrylamide]		19.2	significant degradation effect	DC50 [3]: 84.7 nM
CC#CC(=O)Nc1cc(Nc2ncc(Cl)c(Nc3ccccc3P(C)(C)=O)n2)c(OC)cc1N1CCC(N2CCN(CCCC#Cc3cccc4c3CN(C3CCC(=O)NC3=O)C4=O)CC2)CC1 (centres unmarked) [Compound D058, N-(5-((5-chloro-4-((2-(dimethylphosphoryl)phenyl)amino)pyrimidin-2-yl)amino)-2-(4-(4-(5-(2-(2,6-dioxopiperidin-3-yl)-1-oxoisoindolin-4-yl)pent-4-yn-1-yl)piperazin-1-yl)piperidin-1-yl)-4-methoxyphenyl)but-2-ynamide]	14.6	35.6		degradation effect on EGFR^Del19/T790M/C797S protein (in words) [4]: significant degradation effects; DC50 [4]: 25.1 nM
C=C(F)C(=O)Nc1cc(Nc2ncc(Cl)c(Nc3ccccc3P(C)(C)=O)n2)c(OC)cc1N1CCC(N2CCN(CCCC#Cc3cccc4c3CN(C3CCC(=O)NC3=O)C4=O)CC2)CC1 (centres unmarked) [Compound D552, N-(5-((5-chloro-4-((2-(dimethylphosphoryl)phenyl)amino)pyrimidin-2-yl)amino)-2-(4-(4-(5-(2-(2,6-dioxopiperidin-3-yl)-1-oxoisoindolin-4-yl)pent-4-yn-1-yl)piperazin-1-yl)piperidin-1-yl)-4-methoxyphenyl)-2-fluoroacrylamide]		37.3	significant degradation effect	degradation effect on EGFR^Del19/T790M/C797S protein (in words) [4]: significant degradation effects; DC50 [4]: 29.7 nM; DC50 [3]: 117 nM
C=C(F)C(=O)Nc1cc(Nc2ncc(Cl)c(Nc3ccccc3P(C)(C)=O)n2)c(OC)cc1N1CCC(N2CCN(CCCCC#Cc3cccc4c3CN(C3CCC(=O)NC3=O)C4=O)CC2)CC1 (centres unmarked) [Compound D553, N-(5-((5-chloro-4-((2-(dimethylphosphoryl)phenyl)amino)pyrimidin-2-yl)amino)-2-(4-(4-(6-(2-(2,6-dioxopiperidin-3-yl)-1-oxoisoindolin-4-yl)hex-5-yn-1-yl)piperazin-1-yl)piperidin-1-yl)-4-methoxyphenyl)-2-fluoroacrylamide]		49.5		
COc1cc(N2CCC(N3CCN(CCCCCC#Cc4cccc5c4CN(C4CCC(=O)NC4=O)C5=O)CC3)CC2)c(NC(=O)/C=C/CN(C)C)cc1Nc1ncc(Cl)c(Nc2ccccc2P(C)(C)=O)n1 (centres unmarked) [Compound D557, (E)-N-(5-((5-chloro-4-((2-(dimethylphosphoryl)phenyl)amino)pyrimidin-2-yl)amino)-2-(4-(4-(7-(2-(2,6-dioxopiperidin-3-yl)-1-oxoisoindolin-4-yl)hept-6-yn-1-yl)piperazin-1-yl)piperidin-1-yl)-4-dimethoxyphenyl)-4-(dimethylamino)but-2-enamide]		383		
CCCC#CC(=O)Nc1cc(Nc2ncc(Br)c(Nc3ccccc3P(C)(C)=O)n2)c(OCC(F)(F)F)cc1N1CCC(N2CCN(CCCC#Cc3cccc4c3CN(C3CCC(=O)NC3=O)C4=O)CC2)CC1 (centres unmarked) [Compound D856, N-(5-((5-bromo-4-((2-(dimethylphosphoryl)phenyl)amino)pyrimidin-2-yl)amino)-2-(4-(4-(5-(2-(2,6-dioxopiperidin-3-yl)-1-oxoisoindolin-4-yl)pent-4-yn-1-yl)piperazin-1-yl)piperidin-1-yl)-4-(2,2,2-trifluoroethoxy)phenyl)hex-2-ynamide]		27.4		
CC#CC(=O)Nc1cc(Nc2ncc(Cl)c(Nc3ccc4c(c3P(C)(C)=O)OCCO4)n2)c(OC)cc1N1CCC(N2CCN(CCCC#Cc3cccc4c3CN(C3CCC(=O)NC3=O)C4=O)CC2)CC1 (centres unmarked) [Compound D685]		22.5		
COc1cc(N2CCC(N3CCN(CCCC#Cc4cccc5c4CN(C4CCC(=O)NC4=O)C5=O)CC3)CC2)c(NC(=O)/C=C/CN2CCCCC2)cc1Nc1ncc(Cl)c(Nc2ccccc2P(C)(C)=O)n1 (centres unmarked) [Compound D584, (E)-N-(5-((5-chloro-4-((2-(dimethylphosphoryl)phenyl)amino)pyrimidin-2-yl)amino)-2-(4-(4-(5-(2-(2,6-dioxopiperidin-3-yl)-1-oxoisoindolin-4-yl)pent-4-yn-1-yl)piperazin-1-yl)piperidin-1-yl)-4-methoxyphenyl)-4-(piperidin-1-yl)but-2-enamide]		216		
